From patent US20070191336A1 (priority 2003, published 2007)

Target: T1, phospho p-38 alpha kinase (Homo sapiens, UniProt Q16539)
T1 construct: purchased Panvera
Test: P-38 alpha kinase assay (spectrophotometric, pyruvate kinase/lactate dehydrogenase coupled)
Assay type: biochemical
Settings: for IC50: Table 3, rates from […] to 2 h time frame

[1] = read-out: % Inhibition @ concentration, Table 3

T1 sequence (Q16539 whole entry): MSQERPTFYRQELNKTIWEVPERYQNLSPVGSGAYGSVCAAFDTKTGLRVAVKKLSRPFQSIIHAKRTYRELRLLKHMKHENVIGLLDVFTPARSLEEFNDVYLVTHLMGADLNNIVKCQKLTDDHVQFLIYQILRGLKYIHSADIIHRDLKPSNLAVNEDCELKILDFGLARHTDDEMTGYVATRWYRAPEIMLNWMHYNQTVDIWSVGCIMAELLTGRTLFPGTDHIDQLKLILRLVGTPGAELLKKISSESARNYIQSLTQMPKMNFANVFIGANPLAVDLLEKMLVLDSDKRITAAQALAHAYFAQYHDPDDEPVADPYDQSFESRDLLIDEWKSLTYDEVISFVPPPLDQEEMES

IC50	SMILES	also measured
119 nM	CC(C)(C)c1cc(NC(=O)Nc2cccc(Cl)c2Cl)n(-c2ccc(C(C)(C)O)cc2)n1 [Example 467, 1-{3-t-butyl-1-[4-(2-hydroxypropan-2-yl)phenyl]-1H-pyrazol-5-yl}-3-(2,3-dichlorophenyl)urea]	–
8.6 nM	CC(C)(C)c1cc(NC(=O)Nc2cccc(Cl)c2Cl)n(-c2ccc(C(=O)O)cc2)n1 [Example 468, 4-{3-t-butyl-5-[3-(2,3-dichlorophenyl)ureido]-1H-pyrazol-1-yl}benzoic acid]	–
50 nM	CC(O)c1cccc(-n2nc(C(C)(C)C)cc2NC(=O)Nc2cccc3ccccc23)c1 (stereo not drawn) [Example 472, 1-{3-t-butyl-1-[3-(1-hydroxyethyl)phenyl]-1H-pyrazol-5-yl}-3-(naphthalen-1yl)urea]	–
4 nM	C#CC(O)c1cccc(-n2nc(C(C)(C)C)cc2NC(=O)Nc2cccc3ccccc23)c1 (stereo not drawn) [Example 473, 1-{3-t-butyl-1-[3-(1-hydroxyprop-2-ynyl)phenyl]-1H-pyrazol-5-yl}-3-(naphthalen-1-yl)urea]	–
380 nM	CCOC(=O)c1cccc(-n2nc(C(C)(C)C)cc2NC(=O)Nc2cccc(Cl)c2Cl)c1 [Example 474, ethyl 3-{3-t-butyl-5-[3-(2,3-dichlorophenyl)ureido]-1H-pyrazol-1-yl}benzoate]	–
10 nM	CC(C)(C)c1cc(NC(=O)Nc2cccc(Cl)c2Cl)n(-c2cccc(CO)c2)n1 [Example 475, 1-[3-t-butyl-1-(3-hydroxymethyl-phenyl)-1H-pyrazol-5-yl]-3-(2,3-dichlorophenyl)-urea]	–
42 nM	CC(C)(C)c1cc(NC(=O)Nc2cccc(Cl)c2Cl)n(-c2cccc(C(=O)O)c2)n1 [Example 477, 3-{3-t-butyl-5-[3-(2,3-dichlorophenyl)ureido]-1H-pyrazol-1-yl}benzoic acid]	–
230 nM	CC(C)(C)c1cc(NC(=O)Nc2ccc(Cl)cc2)n(-c2cccc(CN3C(=O)NC(=O)C3=O)c2)n1 [Example 481, 1-{3-t-butyl-2-{3-[(2,4,5-trioxoimidazolidin-1-yl)methyl]phenyl}-1H-pyrazol-3-yl}-3-(4-chlorophenyl)urea]	–
84 nM	CC(C)(C)c1cc(NC(=O)Nc2cccc3ccccc23)n(-c2cccc(CN3C(=O)C(=O)NS3(=O)=O)c2)n1 [Example 482, 1-{5-t-butyl-2-[3-(1,1,3,4-tetraoxo-1λ^6-[1,2,5]thiadiazolidin-2-ylmethyl)phenyl]-2H-pyrazol-3-yl}-3-(naphthalen-1-yl)urea]	–
50 nM	CC(C)(C)c1cc(NC(=O)Nc2cccc3ccccc23)n(-c2cccc(CNC(=O)N3CCOCC3)c2)n1 [Example 485, 1-(3-t-butyl-1-{3-[(morpholine-4-carboxamido)methyl]phenyl}-1H-pyrazol-5-yl)-3-(naphthalen-1-yl)urea]	–
57 nM	CC(C)(C)c1cc(NC(=O)Nc2cccc3ccccc23)n(-c2cccc(CNC(=O)N3CCCC3)c2)n1 [Example 486, 1-(3-t-butyl-1-{3-[(pyrrolidine-1-carboxamido)methyl]phenyl}-1H-pyrazol-5-yl)-3-(naphthalen-1-yl)urea]	–
38 nM	CN(C)C(=O)NCc1cccc(-n2nc(C(C)(C)C)cc2NC(=O)Nc2cccc3ccccc23)c1 [Example 487, 1-{3-t-butyl-1-[3-(3,3-dimethylureidomethyl)phenyl]-1H-pyrazol-5-yl}-3-(naphthalen-1-yl)urea]	–
540 nM	CC(C)(C)c1cc(NC(=O)Nc2ccc(Cl)cc2)n(-c2cccc(CNC(=O)N3CCCCC3)c2)n1 [Example 488, 1-(3-t-butyl-1-{3-{(piperidine-1-carboxamido)methyl]phenyl}-1H-pyrazol-5-yl)-3-(4-chlorophenyl)urea]	–
340 nM	CC(C)(C)c1cc(NC(=O)Nc2ccc(Cl)cc2)n(-c2cccc(CNC(=O)N3CCCC3)c2)n1 [Example 490, 1-(3-t-butyl-1-{3-[(pyrrolidine-1-carboxamido)methyl]phenyl}-1H-pyrazol-5-yl)-3-(4-chlorophenyl)urea]	–
340 nM	CN(C)C(=O)NCc1cccc(-n2nc(C(C)(C)C)cc2NC(=O)Nc2ccc(Cl)cc2)c1 [Example 491, 1-{3-t-butyl-1-[3-(3,3-dimethylureidomethyl)phenyl]-1H-pyrazol-5-yl}-3-(4-chlorophenyl)urea]	–
40 nM	CN1CCN(C(=O)NCc2cccc(-n3nc(C(C)(C)C)cc3NC(=O)Nc3cccc4ccccc34)c2)CC1 [Example 492, 1-(3-t-butyl-1-{3-[(1-methylpiperazine-4-carboxamido)methyl]phenyl)-1H-pyrazol-5-yl)-3-(naphthalen-1-yl)urea]	–
–	CN1CCN(C(=O)NCc2cccc(-n3nc(C(C)(C)C)cc3NC(=O)Nc3ccc(Cl)cc3)c2)CC1 [Example 493, 1-(3-t-butyl-1-{3-[(1-methylpiperazine-4-carboxamido)methyl]phenyl}-1H-pyrazol-5-yl)-3-(4-chlorophenyl)urea]	inhibition at 1 µM [1]: 36%; inhibition at 10 µM (read-out: % Inhibition @ concentration, Table 3, at 10 uM): 73%
670 nM	CC(C)(C)c1cc(NC(=O)Nc2ccc(Cl)cc2)n(-c2cccc(CN3C(=O)C(=O)N(c4ccccc4)C3=O)c2)n1 [Example 494, 1-(3-t-butyl-1-(3-[(2,4,5-trioxo-3-phenylimidazolidin-1-yl)methyl]phenyl}-1H-pyrazol-5-yl)-3-(4-chlorophenyl)urea]	–
250 nM	CC(C)(C)c1cc(NC(=O)Nc2ccc(Cl)cc2)n(-c2cccc(Cn3c(=O)[nH]n(-c4ccccc4)c3=O)c2)n1 [Example 495, 1-(3-t-butyl-1-{3-[(3,5-dioxo-1-phenyl-1,2,4-triazolidin-4-yl)methyl]phenyl}-1H-pyrazol-5-yl)-3-(4-chlorophenyl)urea]	–
–	CC(C)(C)c1cc(NC(=O)Nc2ccc(F)cc2)n(-c2cccc(Cn3c(=O)[nH]n(-c4ccccc4)c3=O)c2)n1 [Example 498, 1-(3-t-butyl-1-{3-[(3,5-dioxo-1-phenyl-1,2,4-triazolidin-4-yl)methyl]phenyl}-1H-pyrazol-5-yl)-3-(4-fluorophenyl)urea]	inhibition at 1 µM [1]: 25%
–	CC(C)(C)c1cc(NC(=O)Nc2cccc(Cl)c2Cl)n(-c2cccc(Cn3c(=O)[nH]n(-c4ccccc4)c3=O)c2)n1 [Example 499, 1-(3-t-butyl-1-{3-[(3,5-dioxo-1-phenyl-1,2,4-triazolidin-4-yl)methyl]phenyl}-1H-pyrazol-5-yl)-3-(2,3-dichlorophenyl)urea]	inhibition at 0.1 µM (read-out: % Inhibition @ concentration, Table 3, at 0.1 uM): 78%; inhibition at 1 µM [1]: 95%
42 nM	CC(C)(C)C1=NC(c2ccc(CC(=O)O)cc2)C(NC(=O)Nc2ccc(Cl)cc2)=C1 (stereo not drawn) [Example 506, 2-(4-{5-t-butyl-3-[3-(4-chlorophenyl)ureido]-2H-pyrrol-2-yl}-phenyl)acetic acid]	–
500 nM	CC(C)(C)c1cc(NC(=O)Nc2cccc3ccccc23)n(-c2ccc3c(c2)CNCC3)n1 [Example 509, 1-[3-t-butyl-1-(1,2,3,4-tetrahydroisoquinolin-7-yl)-1H-pyrazol-5-yl]-3-(naphthalen-1-yl)urea]	–
470 nM	CC(C)(C)c1cc(NC(=O)Nc2ccc(Cl)cc2)n(-c2ccc3c(c2)CNCC3)n1 [Example 510, 1-[3-t-butyl-1-(1,2,3,4-tetrahydroisoquinolin-7-yl)-1H-pyrazol-5-yl]-3-(4-chlorophenyl)urea]	–
32 nM	CC(=O)N1CCc2ccc(-n3nc(C(C)(C)C)cc3NC(=O)Nc3cccc(Cl)c3Cl)cc2C1 [Example 512, 1-[1-(2-acetyl-1,2,3,4-tetrahydroisoquinolin-7-yl)-3-t-butyl-1H-pyrazol-5-yl]-3-(2,3-dichlorophenyl)urea]	–
410 nM	CC(C)(C)c1cc(NC(=O)Nc2ccc3c(c2)OCO3)n(-c2ccc3c(c2)CNCC3)n1 [Example 513, 1-benzo[d][1,3]dioxol-5-yl-3-[3-t-butyl-1-(1,2,3,4-tetrahydroisoquinolin-7-yl)-1H-pyrazol-5-yl]urea]	–
570 nM	CC(C)c1cc(NC(=O)Nc2cccc3ccccc23)n(-c2ccc(C(O)C(F)(F)F)cc2)n1 (stereo not drawn) [Example 514, 1-(1-(4-(2,2,2-trifluoro-1-hydroxyethyl)phenyl)-3-isopropyl-1H-pyrazol-5-yl)-3-(naphthalen-1-yl)urea]	–
450 nM	CC(C)(C)c1cc(NC(=O)Nc2ccc(Cl)cc2)n(-c2cccc(C(O)C(F)(F)F)c2)n1 (stereo not drawn) [Example 516, 1-(3-t-butyl-1-(3-(2,2,2-trifluoro-1-hydroxyethyl)phenyl)-1H-pyrazol-5-yl)-3-(4-chlorophenyl)urea]	–

SMILES	IC50	also measured
CC(C)(C)c1cc(NC(=O)Nc2cccc(Cl)c2Cl)n(-c2ccc(CO)cc2)n1 [Example 466, 1-{3-t-butyl-1-[4-(hydroxymethyl)phenyl]-1H-pyrazol-5-yl}-3-(2,3-dichloro-phenyl)urea]	7 nM	–
CC(C)(C)c1cc(NC(=O)Nc2cccc(Cl)c2Cl)n(-c2cccc(C(C)(C)O)c2)n1 [Example 476, 1-{3-t-butyl-1-[3-(2-hydroxypropan-2-yl)phenyl]-1H-pyrazol-5-yl}-3-(2,3-dichlorophenyl)urea]	24 nM	–
CC(C)(C)c1cc(NC(=O)Nc2ccc(Cl)cc2)n(-c2cccc(CN3C(=O)C(=O)NS3(=O)=O)c2)n1 [Example 483, 1-{5-t-butyl-2-[3-(1,1,3,4-tetraoxo-1λ^6-[1,2,5]thiadiazolidin-2-ylmethyl)phenyl]-2H-pyrazol-3-yl}-3-(4-chlorophenyl)urea]	270 nM	–
CC(C)(C)c1cc(NC(=O)Nc2ccc(Cl)cc2)n(-c2cccc(CNC(=O)N3CCOCC3)c2)n1 [Example 489, 1-(3-t-butyl-1-{3-[(morpholine-4-carboxamido)methyl]phenyl}-1H-pyrazol-5-yl)-3-(4-chlorophenyl)urea]	520 nM	–
CC(C)(C)c1cc(NC(=O)Nc2cccc(Cl)c2Cl)n(-c2ccc3c(c2)CNCC3)n1 [Example 508, 1-[3-t-butyl-(1,2,3,4-tetrahydroisoquinolin-7-yl)-1H-pyrazol-5-yl]-3-(2,3-dichlorophenyl)urea]	52 nM	–
Cn1[nH]c(=O)n(Cc2cccc(-n3nc(C(C)(C)C)cc3NC(=O)Nc3cccc(Cl)c3Cl)c2)c1=O [Example 511, 1-{5-t-butyl-2-[3-(1-methyl-3,5-dioxo-[1,2,4]triazolidin-4-ylmethyl)-phenyl]-2H-pyrazol-3-yl}-3-(2,3-dichloro-phenyl)-urea]	24 nM	–
